Results reported in PubChem BioAssay AID256 (DTP/NCI, 2004).
Several values for one entry are separate records, joined by “and”; a condition that tells them apart may be missing. Equal entries are not always repeated. Toxic doses and inconclusive results are not listed.

System: CD2F1 mice, L1210 leukemia ip, survival T/C
Assay: NCI In Vivo Anticancer Drug Screen. Data for tumor model L1210 Leukemia (intraperitoneal) in CD2F1 (CDF1) mice
Conditions: endpoint: mean survival time, higher = longer survival
Procedure, shortened: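 Ratio T/C, where T is the treated-group value and C the vehicle-dosed control value, from mice implanted with a transplantable tumor.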

[1] = dose: 100.0 mg/kg/injection, schedule: Q04DX003 (ip), vehicle: saline with Tween-80
[2] = dose: 200.0 mg/kg/injection, schedule: Q04DX003 (ip), vehicle: saline with Tween-80
[3] = dose: 400.0 mg/kg/injection, schedule: Q04DX003 (ip), vehicle: saline with Tween-80
[4] = dose: 50.0 mg/kg/injection, schedule: Q01DX009 (ip), vehicle: saline with Tween-80
[5] = dose: 100.0 mg/kg/injection, schedule: Q01DX001 (ip), vehicle: saline
[6] = dose: 100.0 mg/kg/injection, schedule: Q01DX009 (ip), vehicle: saline with Tween-80
[7] = dose: 200.0 mg/kg/injection, schedule: Q01DX001 (ip), vehicle: saline
[8] = dose: 200.0 mg/kg/injection, schedule: Q01DX009 (ip), vehicle: saline with Tween-80
[9] = dose: 400.0 mg/kg/injection, schedule: Q01DX001 (ip), vehicle: saline
[10] = dose: 100.0 mg/kg/injection, schedule: Q04DX003 (ip), vehicle: saline
[11] = dose: 200.0 mg/kg/injection, schedule: Q04DX003 (ip), vehicle: saline
[12] = dose: 100.0 mg/kg/injection, schedule: Q01DX009 (ip), vehicle: saline
[13] = dose: 200.0 mg/kg/injection, schedule: Q01DX009 (ip), vehicle: saline
[14] = dose: 25.0 mg/kg/injection, schedule: Q01DX009 (ip), vehicle: saline
[15] = dose: 400.0 mg/kg/injection, schedule: Q01DX009 (ip), vehicle: saline with Tween-80
[16] = dose: 100.0 mg/kg/injection, schedule: Q04DX002 (ip), vehicle: saline with Tween-80
[17] = dose: 200.0 mg/kg/injection, schedule: Q04DX002 (ip), vehicle: saline with Tween-80
[18] = dose: 400.0 mg/kg/injection, schedule: Q04DX002 (ip), vehicle: saline with Tween-80
[19] = dose: 50.0 mg/kg/injection, schedule: Q01DX009 (ip), vehicle: saline

For `CC[C@H]1CN2CCc3cc(OC)c(OC)cc3[C@@H]2C[C@@H]1C[C@H]1NCCc2cc(OC)c(OC)cc21`, the T/C (dose: 2.0 mg/kg/injection, schedule: Q01DX007 (ip), vehicle: Klucel (hydroxypropylcellulose) (HPC)) was 107 % of control, the T/C (dose: 2.0 mg/kg/injection, schedule: Q01DX009 (ip), vehicle: Klucel (hydroxypropylcellulose) (HPC)) was 108 % of control and the T/C (dose: 2.0 mg/kg/injection, schedule: Q02DX005 (ip), vehicle: saline) was 93 % of control and 102 % of control. The T/C (dose: 2.0 mg/kg/injection, schedule: Q03DX003 (ip), vehicle: Klucel (hydroxypropylcellulose) (HPC)) was 110 % of control, the T/C (dose: 2.0 mg/kg/injection, schedule: Q04DX003 (ip), vehicle: Klucel (hydroxypropylcellulose) (HPC)) was 104 % of control and the T/C (dose: 4.0 mg/kg/injection, schedule: Q01DX007 (ip), vehicle: Klucel (hydroxypropylcellulose) (HPC)) was 118 % of control. For the same compound, the T/C (dose: 4.0 mg/kg/injection, schedule: Q01DX009 (ip), vehicle: Klucel (hydroxypropylcellulose) (HPC)) was 122 % of control, the T/C (dose: 4.0 mg/kg/injection, schedule: Q02DX005 (ip), vehicle: saline) was 104 % of control and the T/C (dose: 4.0 mg/kg/injection, schedule: Q03DX003 (ip), vehicle: Klucel (hydroxypropylcellulose) (HPC)) was 106 % of control. The T/C (dose: 4.0 mg/kg/injection, schedule: Q04DX003 (ip), vehicle: Klucel (hydroxypropylcellulose) (HPC)) was 104 % of control, the T/C (dose: 8.0 mg/kg/injection, schedule: Q01DX007 (ip), vehicle: Klucel (hydroxypropylcellulose) (HPC)) was 105 % of control and the T/C (dose: 8.0 mg/kg/injection, schedule: Q01DX009 (ip), vehicle: Klucel (hydroxypropylcellulose) (HPC)) was 101 % of control. For the same compound, the T/C (dose: 8.0 mg/kg/injection, schedule: Q03DX003 (ip), vehicle: Klucel (hydroxypropylcellulose) (HPC)) was 110 % of control, the T/C (dose: 8.0 mg/kg/injection, schedule: Q04DX003 (ip), vehicle: Klucel (hydroxypropylcellulose) (HPC)) was 110 % of control and the T/C (dose: 25.0 mg/kg/injection, schedule: Q04DX003 (ip), vehicle: saline with Tween-80) was 164 % of control and 195 % of control. For the same compound, the T/C (dose: 30.0 mg/kg/injection, schedule: Q04DX003 (ip), vehicle: saline with Tween-80) was 124 % of control and the T/C (dose: 40.0 mg/kg/injection, schedule: Q04DX003 (ip), vehicle: saline with Tween-80) was 95 % of control.

For `Nc1cccc(C(=O)O)c1`, the T/C [1] was 95 % of control, the T/C [2] was 94 % of control and the T/C [3] was 94 % of control.

`CC(=O)ON=C1C=CC(=C(C#N)c2ccccc2)C=C1` was tested, and the T/C (dose: 50.0 mg/kg/injection, schedule: Q01DX001 (ip), vehicle: saline) was 96 % of control, the T/C [4] was 97 % of control and 101 % of control and the T/C [5] was 98 % of control. The T/C [6] was 98 % of control and 100 % of control, the T/C [1] was 91 % of control and the T/C [7] was 95 % of control. The T/C [8] was 93 % of control and 101 % of control, the T/C [2] was 95 % of control and the T/C [9] was 90 % of control. The T/C [3] was 105 % of control.

`CCOC(=O)C[n+]1ccccc1` was tested, and the T/C [10] was 107 % of control and 95 % of control and the T/C [11] was 90 % of control and 89 % of control.

For `O=[N+]([O-])c1cccnc1Oc1cccc(C(F)(F)F)c1`, the T/C [12] was 95 % of control, the T/C [13] was 96 % of control and the T/C (dose: 400.0 mg/kg/injection, schedule: Q01DX009 (ip), vehicle: saline) was 91 % of control.

With `CC[N+]1(Cc2ccccc2)CC2(CCCCC2)ON2C1CC(C)C2(C)C` (centres undefined) the T/C (dose: 25.0 mg/kg/injection, schedule: Q01DX009 (ip), vehicle: saline with Tween-80) was 92 % of control and the T/C [4] was 93 % of control.

For `CCCC[S+](CCCC)CC(=O)c1ccc(-c2ccccc2)cc1`, the T/C (dose: 0.19 mg/kg/injection, schedule: Q01DX009 (ip), vehicle: saline with Tween-80) was 97 % of control, the T/C (dose: 0.39 mg/kg/injection, schedule: Q01DX009 (ip), vehicle: saline with Tween-80) was 101 % of control and the T/C (dose: 0.76 mg/kg/injection, schedule: Q01DX009 (ip), vehicle: saline with Tween-80) was 98 % of control. For the same compound, the T/C (dose: 1.56 mg/kg/injection, schedule: Q01DX009 (ip), vehicle: saline with Tween-80) was 97 % of control, the T/C (dose: 1.56 mg/kg/injection, schedule: Q01DX009 (ip), vehicle: saline) was 86 % of control and the T/C (dose: 3.12 mg/kg/injection, schedule: Q01DX009 (ip), vehicle: saline with Tween-80) was 98 % of control. For the same compound, the T/C (dose: 3.13 mg/kg/injection, schedule: Q01DX009 (ip), vehicle: saline) was 87 % of control, the T/C (dose: 12.5 mg/kg/injection, schedule: Q01DX009 (ip), vehicle: saline) was 87 % of control and the T/C [14] was 87 % of control.

`CN(C)c1ccc(/C=N\O)c2c1CCC2` was tested, and the T/C [1] was 102 % of control, the T/C [2] was 102 % of control and the T/C [3] was 100 % of control.

`CC(C)CC(C)COC(=O)c1c(Cl)c(Cl)c(Cl)c(Cl)c1C(=O)O` (centres undefined) was tested, and the T/C [5] was 90 % of control and the T/C [7] was 90 % of control.

For `O=C1CCC2(c3ccccc3)C1C2c1ccccc1` (centres undefined), the T/C [1] was 110 % of control, the T/C [2] was 112 % of control and the T/C [3] was 101 % of control.

In the case of `C/C(CC(C)C)=N\NC(=O)CNC(=O)c1ccccc1`, the T/C [6] is reported as 90 % of control, the T/C [8] is reported as 92 % of control and the T/C [15] is reported as 96 % of control.

With `CCNC(C)(C)C(SSSC(c1ccc(Cl)cc1)C(C)(C)NCC)c1ccc(Cl)cc1` (centres undefined) the T/C [10] was 109 % of control and the T/C [11] was 86 % of control.

With `Cc1cc(=O)[nH]c2c(C)cc(Cl)cc12` the T/C [1] was 106 % of control, the T/C [2] was 109 % of control and the T/C [3] was 97 % of control.

`O=C(Nc1ccc2c3c(ccc(NC(=O)c4ccccc4)c13)C=C2)c1ccccc1` was tested, and the T/C [6] was 95 % of control and the T/C [15] was 89 % of control.

In the case of `CC1CC(O)C(N)C(O)C1` (centres undefined), the T/C [5] is reported as 103 % of control, the T/C [7] is reported as 98 % of control and the T/C [9] is reported as 98 % of control.

In the case of `CC(C)CCNC(=O)CI`, the T/C [5] is reported as 101 % of control and the T/C [7] is reported as 95 % of control.

For `CC(Cl)S(=O)(=O)c1ccccc1` (centres undefined), the T/C [16] was 104 % of control, the T/C [17] was 96 % of control and the T/C [18] was 96 % of control.

With `CN(Cc1cnc2nc(N)nc(N)c2n1)c1ccc(C(=O)NC(CCC(=O)NC(CC(=O)O)C(=O)O)C(=O)O)cc1` (centres undefined) the T/C (dose: 5.0 mg/kg/injection, schedule: Q01DX009 (ip), vehicle: sodium bicarbonate) was 165 % of control and the T/C (dose: 10.0 mg/kg/injection, schedule: Q01DX009 (ip), vehicle: sodium bicarbonate) was 151 % of control.

`CS(=O)(=O)OCC(O)C(O)COS(C)(=O)=O` (centres undefined) was tested, and the T/C (dose: 50.0 mg/kg/injection, schedule: Q01DX007 (ip), vehicle: saline) was 107 % of control, the T/C [19] was 101 % of control and the T/C (dose: 50.0 mg/kg/injection, schedule: Q03DX003 (ip), vehicle: saline) was 104 % of control. For the same compound, the T/C (dose: 50.0 mg/kg/injection, schedule: Q04DX003 (ip), vehicle: saline) was 103 % of control, the T/C (dose: 100.0 mg/kg/injection, schedule: Q01DX007 (ip), vehicle: saline) was 104 % of control and the T/C (dose: 100.0 mg/kg/injection, schedule: Q01DX009 (ip), vehicle: saline sonified) was 102 % of control. The T/C [12] was 104 % of control, the T/C (dose: 100.0 mg/kg/injection, schedule: Q03DX003 (ip), vehicle: saline) was 104 % of control and the T/C (dose: 100.0 mg/kg/injection, schedule: Q04DX003 (ip), vehicle: saline sonified) was 100 % of control. For the same compound, the T/C [10] was 100 % of control, the T/C (dose: 200.0 mg/kg/injection, schedule: Q01DX007 (ip), vehicle: saline) was 105 % of control and the T/C (dose: 200.0 mg/kg/injection, schedule: Q01DX009 (ip), vehicle: saline sonified) was 96 % of control. The T/C [13] was 106 % of control, the T/C (dose: 200.0 mg/kg/injection, schedule: Q03DX003 (ip), vehicle: saline) was 102 % of control and the T/C (dose: 200.0 mg/kg/injection, schedule: Q04DX003 (ip), vehicle: saline sonified) was 108 % of control. For the same compound, the T/C [11] was 114 % of control, the T/C (dose: 400.0 mg/kg/injection, schedule: Q01DX009 (ip), vehicle: saline sonified) was 100 % of control and the T/C (dose: 400.0 mg/kg/injection, schedule: Q04DX003 (ip), vehicle: saline sonified) was 102 % of control.

With `CC#CC(C)=O` the T/C [14] was 93 % of control, the T/C [19] was 96 % of control and the T/C [12] was 97 % of control.

For `COc1ccc(NC(=O)Oc2cc(C(C)C)ccc2C)cc1`, the T/C [16] was 98 % of control, the T/C [17] was 98 % of control and the T/C [18] was 94 % of control.

For `Clc1ccc(N=C(Nc2ccc(Cl)cc2)c2ccccc2)cc1`, the T/C [1] was 104 % of control, the T/C [2] was 110 % of control and the T/C [3] was 98 % of control.

In the case of `C/C(C(=O)O)=C(\C)c1ccccc1`, the T/C [16] is reported as 92 % of control, the T/C [17] is reported as 103 % of control and the T/C [18] is reported as 103 % of control.
